Measurements from PMC5571359, “Screening the Medicines for Malaria Venture Pathogen Box across Multiple Pathogens Reclassifies Starting Points for Open-Source Drug Discovery” (Antimicrobial Agents and Chemotherapy, 2017).
Where two headings read alike, the source gives them in different places.

Legend:
[1] = tested on: 3T3 host cells; test: T. cruzi assay, activity against 3T3 host cells; type: cell-based; settings: reference compound set; IA = inactive at 16.4 μM
Protocol: page 4: […] Puromycin, 71 chloroquine, artesunate, DHA, pyronaridine and pyrimethamine were also tested in 72 IC50 format to act as internal reference compounds. 73 74 Intracellular anti-Trypanosoma cruzi Assay Protocol 75 The host cell cytoplasm, in which the parasite resides, is identified by the fluorescent 76 marker, HCS CellMask Green. Parasite and host cell nuclei are detected with the 77 fluorescent DNA intercalator, Hoechst 33342. The Opera® High Content Screening 78 System is used to take images of wells and a spot detection algorithm is used to 79 identify parasites within the cytoplasm. 80 81 Briefly, 1x 10^3 3T3 cells were added to collagen coated 384-well plates and following 82 24 hrs incubation at 37 °C, a multiplicity of infection (MOI) of 5:1 parasite: host cells 83 were added to the plate using a Multidrop liquid handler. Following additional 24 hrs 84 incubation, extracellular parasites were washed from the plates and RPMI with no […] 86 added to all wells. The final volume of media in the primary screening assay, before 87 addition of compound, was modified slightly to 55 µL. One µL of compounds, provided 88 by Compounds Australia, were diluted by the addition of 25 µL of sterile water. This […] 91 donovani). Five microliters of this dilution was added to assay plates. The final […] The final concentrations of compounds in the […] Following 48 hrs incubation in the presence 97 of compounds, wells were fixed, stained and read on the Opera® High Content 98 Screening System to assess compound activity. 99 The Z′-factor, as a measure of assay reproducibility, was determined from a plate […] The positive control used to calculate activity against […] To 103 assess the sensitivity of the T. cruzi assay, activity of the reference compounds 104 benznidazole, NFX, posaconazole and puromycin were determined. […] 108 resazurin as a measure of parasite viability. 109 T. b. brucei trypanosomes were cultured in vitro in HM1-9 medium supplemented with […] Fifty-five µL of logarithmic phase […] 112 incubated for 24 hrs at 37°C /5% CO2. Compounds were subsequently added to the […] Following […] 116 37°C / 5% CO2 followed by 22 hrs at room temperature. […] The percent

[2] = tested on: Plasmodium falciparum 3D7 asexual blood stage; settings: for IC50: read-out: IC50 P. falciparum 3D7 ABS; for screening concentrations at which red blood cell (RBC) lysis was witnessed: human
[3] = tested on: T. cruzi intracellular amastigotes; test: Intracellular anti-Trypanosoma cruzi image-based assay (amastigotes); type: cell-based
[4] = tested on: NF54-pfs16-LUC-GFP stage IV gametocytes; test: Plasmodium falciparum late stage gametocyte (LSG) image-based assay; type: cell-based; settings: for IC50: reference compound set, 11-point dose response, IA = inactive at 20 μM, read-out: IC50 P. falciparum NF54 LSG
[5] = tested on: HEK293 cells; test: HEK293 resazurin cell cytotoxicity assay
[6] = tested on: T. b. brucei 427 bloodstream trypanosomes; test: T. b. brucei resazurin viability assay; type: cell-based, Trypanosoma brucei brucei
[7] = tested on: L. donovani MHOM/IN/80/DD8 intracellular amastigotes; test: Leishmania donovani intracellular amastigote assay in THP-1 cells; type: cell-based; settings: reference compound set, IA = inactive at 20 μM
[8] = tested on: L. infanium (macrophages); set-up: method as in Pbox supporting information; settings: ref Pbox supporting information; cited from earlier work
[9] = tested on: T. brucei brucei; settings: ref Pbox supporting information; read-out: T.b. brucei Pbox IC50; cited from earlier work
[10] = tested on: L. donovani (macrophages); set-up: method as in Pbox supporting information; settings: ref Pbox supporting information; cited from earlier work
[11] = tested on: HepG2; settings: ref PBox supporting information, cited from earlier work
[12] = tested on: T. cruzi C4 β-galactosidase reporter parasite in MRC 5SV2 host cells; settings: ref Pbox supporting information; read-out: T. cruzi Pbox IC50; cited from earlier work
[13] = tested on: infected PMM; set-up: method as in Pbox supporting information; settings: ref Pbox supporting information, read-out: Toxicity on infected PMM Pbox IC50; cited from earlier work
[14] = tested on: T. brucei rhodesiense; settings: ref Pbox supporting information; read-out: T .b. rohdensie Pbox IC50; cited from earlier work
[15] = tested on: L. donovani axenic amastigotes; set-up: method as in PBox supporting information; settings: ref PBox supporting information; cited from earlier work
[16] = tested on: Plasmodium falciparum 3D7 asexual blood stage; test: microbe, parasite or virus in culture
[17] = tested on: P. falciparum stage V gametocytes; settings: cited from earlier work; for IC50: stage V gametocytes, ref PBox supporting information, read-out: PF stage V GAMS PBox IC50
[18] = tested on: liver stage; settings: ref Pbox supporting information; cited from earlier work
[19] = tested on: P. falciparum ABS; settings: cited from earlier work
[20] = reference compound set, 11-point dose response, IA = inactive at 20 μM
[21] = reference compound set, IA = inactive at 16.4 μM, read-out: IC50 T. cruzi intracellular amastigotes
[22] = reference compound set, IA = inactive at 20 μM, read-out: IC50 T. brucei brucei trypomastigotes
[23] = read-out: IC50 L. donovani n = 1, first test
[24] = read-out: IC50 L. donovani n = 2, second test
[25] = Homo sapiens, HEK293, read-out: HEK % Inhibition 20uM/IC50 Discovery Biology (IA)
[26] = P. falciparum 3D7, ref PBox supporting information, read-out: Pf 3D7 Pbox IC50

**Q.** What does the source list for `CC(=O)OC[C@H]1O[C@@H]([S-])[C@H](OC(C)=O)[C@@H](OC(C)=O)[C@@H]1OC(C)=O.CCP(CC)CC.[Au+]` [Auranofin, reference compound]?
**A.** IC50 [1]: 4.9 µM; IC50 [2, 20]: 0.7 µM; IC50 [3, 21]: 3.02 µM; IC50 [4]: 0.55 µM; IC50 ([5]; read-out: IC50 mammalian cell cytotoxicity HEK293, reference compound set): 2.2 µM; IC50 [6, 22]: 0.24 µM; IC50 [7, 23]: 0.63 µM; IC50 [7, 24]: 2 µM

**Q.** With `O=C(Nc1c(O)cccc1-c1nc2c(C(=O)O)cccc2o1)c1cc(-c2ccccc2)on1` [MMV676008] as the compound, how does the IC50 [8] read?
**A.** > 32 µM

**Q.** And the IC50 [9]?
**A.** > 32 µM

**Q.** What about the IC50 [10] of the same compound?
**A.** > 30 µM

**Q.** And the “HepG2 PBox CC20” value [11]?
**A.** 5.7 µM

**Q.** And the IC50 [12]?
**A.** > 32 µM

**Q.** And the IC50 [13]?
**A.** > 30 µM

**Q.** And the IC50 [14]?
**A.** > 32 µM

**Q.** And the IC50 [15]?
**A.** 0.57 µM

**Q.** Which results are given for `C[C@H]1COc2c(N3CCN(C)CC3)c(F)cc3c(=O)c(C(=O)O)cn1c23` [Levofloxacin (–)-ofloxacin, reference compound]?
**A.** IC50 [1]: > 16.4 µM; IC50 [2, 20]: > 20 µM; IC50 [3, 21]: > 16.4 µM; IC50 [4]: > 20 µM; IC50 [6, 22]: > 20 µM; IC50 [7, 23]: > 20 µM; IC50 [7, 24]: > 20 µM

**Q.** For `Cc1nc(-c2ccccn2)nc(NCCc2ccc(S(C)(=O)=O)cc2)c1Cl` [MMV658993], which IC50 [8] is on record?
**A.** > 32 µM

**Q.** And the IC50 [9]?
**A.** > 32 µM

**Q.** What about the IC50 [10] of the same compound?
**A.** > 30 µM

**Q.** And the “HepG2 PBox CC20” value [11]?
**A.** 27.9 µM

**Q.** What about the IC50 [12] of the same compound?
**A.** 4.44 µM

**Q.** And the IC50 [13]?
**A.** 30 µM

**Q.** What about the IC50 [14] of the same compound?
**A.** > 32 µM

**Q.** And the IC50 [15]?
**A.** 2.05 µM

**Q.** Which results are given for `COc1ccc(OC)c(NCc2ccc3nc(N)nc(N)c3c2Cl)c1` [MMV675968]?
**A.** SI HEK (P. falciparum 3D7) ([2]; HEK293): 7.4; SI HepG2 (P. falciparum 3D7) ([2]; HEPG2 (PBox data)): 113; IC50 ([3]; Trypanosoma cruzi, intracellular amastigotes, read-out: T cruzi Discovery Biology IC50): 1.33 µM; IC50 ([5]; Homo sapiens, HEK293, read-out: HEK % Discovery Biology IC50): 0.221 µM; HepG2 PBox CC20 [11]: 3.4 µM; IC50 ([6]; Trypanosoma brucei, read-out: T b.brucei Discovery Biology IC50): 2.07 µM; IC50 ([16]; 3D7, read-out: Antiplasmodial IC50 (ABS), PBox compounds, P. falciparum 3D7): 0.03 µM; IC50 ([16]; 3D7, read-out: Pf 3D7 Discovery Biology IC50, P. falciparum 3D7 asexual blood stage): 0.033 µM

**Q.** What does the source list for `c1ccc(Oc2ccc(-c3cc(N4CCOCC4)[nH]n3)cc2)cc1` [MMV045105]?
**A.** IC50 [8]: 21.5 µM; IC50 [9]: 3.45 µM; IC50 [10]: > 30 µM; HepG2 PBox CC20 [11]: 7.5 µM; IC50 [12]: 16 µM; IC50 [13]: > 30 µM; IC50 [14]: 1.29 µM; IC50 [15]: 3.87 µM

**Q.** With `Cc1ccc(-c2cc(C(=O)Nc3cccnc3)c3cc(Br)ccc3n2)cc1` [MMV016838] as the compound, how does the “activity against gametocytes (stage V), PBox supporting information” value ([17]; ref Pbox supporting information) read?
**A.** known to be active

**Q.** What about the “activity in the Discovery Biology ABS assay” value [2] of the same compound?
**A.** not to be active

**Q.** And the “activity against liver stage, PBox supporting information” value [18]?
**A.** known to be active

**Q.** What about the “activity in the Discovery Biology stage IV gametocyte (LSG) assay” value [4] of the same compound?
**A.** not to be active

**Q.** And the IC50 ([19]; Pf 3D7, ref Pathogen Box supporting information, read-out: Pf 3D7 Pbox IC50)?
**A.** 0.1 µM

**Q.** What does the source list for `CCc1ccc(C(NCc2nc(N)nc(N(C)C)n2)C(C)C)cc1` (stereo not drawn) [MMV1019989]?
**A.** IC50 [17]: 0.076 µM; screening concentrations at which red blood cell (RBC) lysis was witnessed [2]: ≥ 2 µM; IC50 [5, 25]: > 20 µM; IC50 [19, 26]: > 2 µM

**Q.** With `CCNC(=O)C(C)Nc1nc(-c2cccnc2)nc2sc(C)c(C)c12` (stereo not drawn) [MMV1037162] as the compound, how does the IC50 [17] read?
**A.** 0.61 µM

**Q.** What about the “screening concentrations at which red blood cell (RBC) lysis was witnessed” value [2] of the same compound?
**A.** ≥ 2 µM

**Q.** What about the IC50 [5, 25] of the same compound?
**A.** > 20 µM

**Q.** And the IC50 [19, 26]?
**A.** > 2 µM

**Q.** What does the source list for `C[C@H](C(N)=O)N1CCCC[C@@H]1c1ccc(OCc2cccc(F)c2)cc1` [MMV676270]?
**A.** activity in the Discovery Biology ABS assay [2]: no activity; IC50 [18]: 1.77 µM; activity in the Discovery Biology stage IV gametocyte (LSG) assay [4]: no activity; IC50 [5, 25]: > 20 µM; CC50 ([11]; read-out: HepG2 PBox CC50 µM): > 10 µM; EC50 ([19]; ChEMBL Data, P. falciparum, read-out: TCMDC (ref 93) EX50): 0.99 µM; IC50 ([19]; read-out: literature ABS activity): 0.99 µM

**Q.** Which IC50 [8] does the source give for `N#CCN(CCCCN1CCN(c2ccc(F)cc2)CC1)C(=O)OCc1ccccc1` [MMV675997] here?
**A.** 25.4 µM

**Q.** And the IC50 [9]?
**A.** 24.9 µM

**Q.** What about the IC50 [10] of the same compound?
**A.** 22.2 µM

**Q.** What about the IC50 [12] of the same compound?
**A.** 4.62 µM

**Q.** What about the IC50 [13] of the same compound?
**A.** > 30 µM

**Q.** And the IC50 [14]?
**A.** 16.4 µM

**Q.** What about the IC50 [15] of the same compound?
**A.** > 100 µM

**Q.** With `NCCC[C@](N)(C(=O)O)C(F)F` [α-Difluoromethylornithine, reference compound] as the compound, how does the IC50 [1] read?
**A.** > 16.4 µM

**Q.** And the IC50 [2]?
**A.** > 20 µM

**Q.** And the IC50 [3, 21]?
**A.** > 16.4 µM

**Q.** What about the IC50 [4] of the same compound?
**A.** > 20 µM

**Q.** And the IC50 [6, 22]?
**A.** > 20 µM

**Q.** And the IC50 [7, 23]?
**A.** > 20 µM

**Q.** What about the IC50 [7, 24] of the same compound?
**A.** > 20 µM

**Q.** For `Clc1cccc(CO[C@H]2CCc3ccccc3[C@@H]2n2ccnn2)c1` [MMV676159], which IC50 [8] is on record?
**A.** > 32 µM

**Q.** What about the IC50 [9] of the same compound?
**A.** > 32 µM

**Q.** And the IC50 [10]?
**A.** > 30 µM

**Q.** What about the “HepG2 PBox CC20” value [11] of the same compound?
**A.** >80 µM

**Q.** And the IC50 [12]?
**A.** 3.08 µM

**Q.** And the IC50 [13]?
**A.** > 30 µM

**Q.** And the IC50 [14]?
**A.** > 32 µM

**Q.** And the IC50 [15]?
**A.** 6.6 µM

**Q.** Which IC50 [17] does the source give for `CNC(=O)CNc1nc(-c2ccccn2)nc2scc(-c3ccccc3)c12` [MMV1029203] here?
**A.** 0.84 µM

**Q.** What about the “screening concentrations at which red blood cell (RBC) lysis was witnessed” value [2] of the same compound?
**A.** ≥ 2 µM

**Q.** What about the IC50 [5, 25] of the same compound?
**A.** > 20 µM

**Q.** And the IC50 [19, 26]?
**A.** > 2 µM
